Data published in patent US8680137B2, “Agents and methods for treating ischemic and other diseases” (Nono Inc., priority 2009, dated 2014).
Entries after “also recorded” stand apart in the source; their conditions may differ.

Experiments:
[1] = tested on: primary cultured mouse cortical cells; test: OGD-induced anoxic death in murine primary neuronal cell cultures, PI fluorescence; type: cell-based; details: 1 to 3 hours OGD, with or without MCN, applied prior to or following OGD
Description: TRPM7 inhibitors were tested for their ability to reduce anoxic death in murine primary neuronal cell cultures subjected to 1 to 3 hours of OGD. This assay was generally performed as described by Aarts et al (2003). In brief, mixed cortical cultures enriched with neurons (85%) were prepared and used for experiments after 12-14 days in vitro. The cultures were transferred to an anaerobic chamber containing 5% CO2, 10% H and 85% N2. Cultures were washed 3× with 500 μl deoxygenated glucose free bicarbonate solution and maintained anoxic for the appropriate duration at 37° C. OGD was terminated by washing the cultures with oxygenated glucose-containing bicarbonate solution, and the cultures were further maintained 1-24 hours in a humidified 5% CO2 atmosphere. Cell death wash generally measured by fluorescence measurement of PI (50 ug/ml) in a multiwall plate reader (CytoFluor II, Perseptive Biosystems).

[2] = tested on: Weri retinoblastoma cells; test: Cancer cell proliferation, Weri; type: cell-based; details: >20% inhibition at 48-96 hours, MTT, SRB, luminescence or BrDU
Description: (§1) To determine the breadth of efficacy in cancers, we examined the efficacy of a range of TRPM7 inhibitors for their ability to inhibit cell proliferation in cancer cell lines. Representative figures are included as examples.
(§2) Cells (Table 1) were grown to 70% confluency, trypsinized, counted, and seeded in 96-well flat-bottom plates at a final concentration of 2.5×10^3-5.0×10^3 cells/well in growth media containing 5% FBS (Day 0). Other well sizes and cell densities were used successfully as well. Cells were allowed to incubate in growth media for 24 hours to allow for maximum adhesion. Treatment with the test agent began on Day 1 and continued for 72 hours either with or without retreatment. At the 72 hour time point, viable cell numbers are quantified by the CellTiter-Glo® cell viability assay as described above, or using standard MTT, SRB or BrDU assays. Experiments were repeated at least twice with the same concentrations to determine growth inhibitory activity.
(§3) Data Collection—For the cell proliferation studies, data from each experiment was collected and expressed as % Cell Growth using the following calculation: % Cell Growth=(ftest/fvehicle)×100 Where ftest is the luminescent signal of the tested sample, and fvehicle is the luminescence of the vehicle in which the drug is dissolved (or appropriate measure for the other viability/proliferation measures). Dose response graphs and IC50 values were generated using standard software using the following variable slope equation: […]

TRPM7 = TRPM7 (Mus musculus, UniProt Q923J1); test: Whole-cell patch clamp recording of TRPM7 currents in HEK293 cells expressing TRPM7; details: for TRPM7 currents, applied intracellularly: in intracellular recording fluid, final concentration 2 mM, 10-20 minutes; for TRPM7 currents, extracellular application: tested at 0.3, 1, 3, 10 and 30 μM
Chain of TRPM7 (Q923J1 whole entry): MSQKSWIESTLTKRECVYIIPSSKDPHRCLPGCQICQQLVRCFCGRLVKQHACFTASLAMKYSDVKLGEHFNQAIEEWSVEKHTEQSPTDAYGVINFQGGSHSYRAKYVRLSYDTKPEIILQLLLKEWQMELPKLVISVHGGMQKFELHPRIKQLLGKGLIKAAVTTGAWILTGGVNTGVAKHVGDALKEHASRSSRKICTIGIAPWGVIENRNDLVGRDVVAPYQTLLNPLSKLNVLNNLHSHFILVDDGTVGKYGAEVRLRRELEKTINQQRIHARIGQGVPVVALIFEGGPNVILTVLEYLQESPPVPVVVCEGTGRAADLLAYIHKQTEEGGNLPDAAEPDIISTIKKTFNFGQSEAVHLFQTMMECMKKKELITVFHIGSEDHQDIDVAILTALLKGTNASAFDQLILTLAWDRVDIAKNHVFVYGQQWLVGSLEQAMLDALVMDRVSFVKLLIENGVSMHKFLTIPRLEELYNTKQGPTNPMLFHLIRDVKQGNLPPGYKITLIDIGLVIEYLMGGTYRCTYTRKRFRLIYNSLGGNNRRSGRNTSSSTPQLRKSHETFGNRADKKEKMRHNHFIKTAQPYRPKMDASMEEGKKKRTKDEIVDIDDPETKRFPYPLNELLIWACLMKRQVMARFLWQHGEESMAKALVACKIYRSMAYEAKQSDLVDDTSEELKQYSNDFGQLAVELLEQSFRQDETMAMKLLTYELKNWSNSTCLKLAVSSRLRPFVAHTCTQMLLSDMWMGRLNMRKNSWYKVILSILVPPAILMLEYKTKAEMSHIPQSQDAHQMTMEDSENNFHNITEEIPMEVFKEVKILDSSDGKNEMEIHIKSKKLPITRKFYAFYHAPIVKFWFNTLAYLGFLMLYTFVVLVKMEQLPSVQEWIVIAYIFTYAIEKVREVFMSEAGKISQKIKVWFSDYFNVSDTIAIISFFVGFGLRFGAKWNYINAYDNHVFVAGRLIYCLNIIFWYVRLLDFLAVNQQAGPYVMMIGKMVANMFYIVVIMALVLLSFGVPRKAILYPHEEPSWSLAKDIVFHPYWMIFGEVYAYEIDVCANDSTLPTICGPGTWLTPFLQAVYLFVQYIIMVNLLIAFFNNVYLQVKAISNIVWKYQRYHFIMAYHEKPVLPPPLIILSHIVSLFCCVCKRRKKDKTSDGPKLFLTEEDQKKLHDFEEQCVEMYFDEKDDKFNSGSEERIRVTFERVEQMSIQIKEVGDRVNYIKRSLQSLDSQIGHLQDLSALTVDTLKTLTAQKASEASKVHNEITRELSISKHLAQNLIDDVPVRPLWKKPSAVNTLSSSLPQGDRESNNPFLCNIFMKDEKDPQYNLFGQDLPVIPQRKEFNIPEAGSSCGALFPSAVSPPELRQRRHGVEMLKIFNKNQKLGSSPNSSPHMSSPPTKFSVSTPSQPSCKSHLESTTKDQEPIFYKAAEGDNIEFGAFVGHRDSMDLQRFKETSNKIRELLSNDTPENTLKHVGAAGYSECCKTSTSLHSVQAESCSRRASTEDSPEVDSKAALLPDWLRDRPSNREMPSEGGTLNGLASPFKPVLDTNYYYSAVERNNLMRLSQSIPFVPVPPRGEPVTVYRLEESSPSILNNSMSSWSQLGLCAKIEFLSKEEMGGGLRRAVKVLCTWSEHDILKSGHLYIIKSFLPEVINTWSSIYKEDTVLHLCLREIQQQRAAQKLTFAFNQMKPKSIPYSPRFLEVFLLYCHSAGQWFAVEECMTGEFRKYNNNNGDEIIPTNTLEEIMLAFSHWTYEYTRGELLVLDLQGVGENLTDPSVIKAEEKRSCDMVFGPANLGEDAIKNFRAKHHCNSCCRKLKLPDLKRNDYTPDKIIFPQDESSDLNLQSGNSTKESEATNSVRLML
Description: Whole-cell patch clamp recordings were used essentially as described to test the TRPM7 inhibitors in HEK293 cells, H9c2 cardiomyocytes and cultured neurons. Each test compound was tested at 0.3, 1, 3, 10 and 30 μM, or as high as solubility permits.
To assess whether the M-compounds were inhibiting TRPM7 currents from an intracellular or extracellular location, M21 and M6 were dissolved in DMSO at 10 mM as stock, then diluted into intracellular recording fluid (ICF) to final concentration of 2 mM Immediately start recording of the TRPM7 like currents to RAMP change of membrane potentials after making the whole cell. Recording lasts for 10-20 minutes to compare the currents between control and test group.

[3] = tested on: retinal ganglion cells (RGCs); test: OGD in cultured primary retinal ganglion cells, PI fluorescence; type: cell-based, rat; details: 5 μM, 24 hours after 3 hour OGD
From the text: Acute and chronic retinal ischemia are major causes of blindness. Retinal damage from glaucoma, also termed “slow excitotoxicity” afflicts millions of people each year and is the second leading cause of blindness worldwide (after cataracts). Diabetic retinopathy is also very common, afflicting about 40% of diabetics and, while less commonly producing complete blindness, is a leading cause of visual impairment. The retina is an extension of the CNS, and was the first organ in which excitotoxicity was described. This invention discloses TPRM7 antagonists that can inhibit anoxic retinal damage. To examine this, we cultured primary retinal ganglion cells (RGCs) and organotypic whole retinas from neonatal rat pups by standard methods and exposed them to OGD (1 or 3 hours). […] This underscores our earlier discussion that inhibiting TRPM7 is a ubiquitous mechanism for the reduction of ischemic damage.

H9c2 cells = test: OGD-induced cell death in H9c2 cardiomyocytes, PI uptake; type: cell-based, rat; details: for resilience to OGD: 0.05-5.0 μM; for protection against OGD-induced death, pre-treatment: pre-treatment before OGD
Description: The rat cardiomyoblast cell line H9c2 was obtained from the American Type Culture Collection (CRL-1446) and cultured in Dulbecco's Modified Eagle Medium supplemented with 10% (v/v) heat-inactivated fetal bovine serum and 1% antibiotic-antimycotic. Cells were grown in an atmosphere of […]/5% CO2 in a humidified incubator.
H9c2 cells were made anoxic by replacing the medium with de-oxygenated Ischemic buffer (in mM: 1.13 CaCl2, 5 KCl, 0.3 KH2PO4, 0.5 MgCl2, 0.4 MgSO4, 128 NaCl, 10 HEPES) and by transferring them to an anaerobic chamber (5% CO2, 10% H2, 85% N2) for 6 hrs or 16 hrs at 37° C. OGD was terminated by washing the cells with oxygenated glucose-containing Control buffer (in mM: 1.13 CaCl2, 5 KCl, 0.3 KH2PO4, 0.5 MgCl2, 0.4 MgSO4, 128 NaCl, 10 HEPES 10 Glucose). Cultures were maintained for another 2 hrs at 37° C. in a humidified 5% CO2 atmosphere. Normoxic cells were maintained in Control buffer for the duration of the experiment.
Cell death was determined by fluorescence measurements of PI (5 μg/ml) using a multiwell plate fluorescence scanner. The fraction of dead cells in each culture was calculated as: fraction dead=(Ft−F0)/Fmax where Ft=PI fluorescence at 2 hrs post-OGD, F0=initial PI fluorescence immediately after the OGD treatment, and Fmax=PI fluorescence of the same cultures following 20 mins incubation in 1% TritonX-100.
H9c2 cells were cultured and subjected to OGD as described supra. FIG. 71 panels A and B show the results of exposure to M21 or M5 for 24 hours following 6 hours of OGD. FIG. 71 panels C and D show the results of H9c2cells were treated with either 1 mM Mg^2+, 5 μM M6, M11 (acute treatment) during the anoxic and recovery periods, or 1 μM nifedipine. Results are presented as mean±SEM (n=4).

[4] = tested on: MCF-7 breast cancer cells; test: Cancer cell proliferation, MCF-7; type: cell-based; details: for proliferation: MCF-7, FIG. 80; for Demonstrated Reduction of Proliferation at or below 10 μM Inhibitor concentration: MCF-7, >20% inhibition at 48-96 hours, MTT, SRB, luminescence or BrDU
Description: as §1, §2, §3

retinal explants = test: OGD in cultured ex vivo retinal explants; type: cell-based, rat; details: 1 hr OGD
Description: The ability of TRPM7 inhibitors to protect other types of cell cultures following exposure to anoxia, including non-neuronal cell cultures, has also been tested. In general, cultures of growing cells are exposed to a 1-6 hour period of anoxia, followed by addition of a TRPM7 at a range of concentrations upon removal from anoxic conditions. […] This implies that TRPM7 inhibitors may be useful both as a treatment for anoxic damage to patients presenting symptoms of a disorder associated with anoxic damage, or as a preventative measure. Such preventative measures can be chronic, such as treatment to protect against damage from heart attacks or strokes, or acute, to be given prior to or during surgical procedures, which may include but not be limited to procedures that involve endovascular invasion and have the possibility of dislodging material that may block blood flow through arteries. Other types of preventative measures can include the reduction of anoxic damage associated with cardiovascular issues (heart attack, myocardial infarction, acute ischemic attacks, atrial fibrillation, etc), brain disorders (stroke, neurotrauma, etc), diabetic disorders (blindness, deafness, neuropathy), retinal/eye disorders (glaucoma, macular degeneration, blindness), aural disorders (deafness, progressive deafness, hearing loss), muscle disorders (weakness, myodegenerative disease, disorders associated with mitochondrial depletion), and organ disorders (kidney, lung, liver disorders associated with ischemia or anoxic damage).
Acute and chronic retinal ischemia are major causes of blindness. Retinal damage from glaucoma, also termed “slow excitotoxicity” afflicts millions of people each year and is the second leading cause of blindness worldwide (after cataracts). Diabetic retinopathy is also very common, afflicting about 40% of diabetics and, while less commonly producing complete blindness, is a leading cause of visual impairment. The retina is an extension of the CNS, and was the first organ in which excitotoxicity was described. […]

| SMILES | protection from anoxic death after OGD [1] | Demonstrated Reduction of Proliferation at or below 10 μM Inhibitor concentration [2] | TRPM7 currents, applied intracellularly (TRPM7) | TRPM7 currents, extracellular application (TRPM7) | TRPM7 currents, extracellular application (TRPM7; listed as 6) | cytoprotection after OGD compared with U0126 or NA-1 [3] | resilience to OGD (H9c2 cells) | protection against OGD-induced death, pre-treatment (H9c2 cells) | proliferation [4] | Demonstrated Reduction of Proliferation at or below 10 μM Inhibitor concentration [4] | survival / resilience following exposure to OGD (retinal explants) | TRPM7 currents, extracellular application (TRPM7; listed as 11) | TRPM7 currents, extracellular application (TRPM7; listed as 21) |
| --- | --- | --- | --- | --- | --- | --- | --- | --- | --- | --- | --- | --- | --- |
| COc1cc2c(cc1OC)C(c1sc3ccccc3c1Cl)=NCC2 [Compound M6] | protection of cultures from anoxic death is observed | Weri retinoblastoma | do not affect TRPM7 currents | reduces current through the TRPM7 channel | inhibited ion currents through TRPM7 | more protective | enhanced their resilience to OGD | comparable result to treatment after the onset of anoxia | reduce proliferation | MCF-7 | enhanced their resilience to OGD |  |  |
| O=C(Nc1ccc(F)cc1)C(Sc1ccc(Cl)cc1)c1ccccc1 (stereo not shown) [Compound M11] | protection has been demonstrated | Weri retinoblastoma |  | highest level of inhibition |  |  | enhanced their resilience to OGD | less robust rescue of the OGD-induced death | reduce proliferation | MCF-7 | promote survival | inhibited ion currents through TRPM7 |  |
| Cc1c(Cc2ccc(Cl)c(Cl)c2)c(=O)oc2cc(O)ccc12 [Compound M21] | protection of cultures from anoxic death is observed | Weri retinoblastoma | do not affect TRPM7 currents | highest level of inhibition |  | more protective | enhanced their resilience to OGD |  |  |  | promote survival; also recorded: enhanced their resilience to OGD |  | inhibited ion currents through TRPM7 |
